Our source for the IC50 and inhibition values is ChEMBL document CHEMBL1165986, “Xestosaprols from the Indonesian marine sponge Xestospongia sp” (J Nat Prod, 2010).

The target in this assay is Beta-secretase 1 (Homo sapiens, UniProt P56817). Nature of the assay: Inhibition of BACE1 mediated cleavage of amyloid precursor protein by chemiluminescence assay.
Sequence of Beta-secretase 1 (P56817 whole entry): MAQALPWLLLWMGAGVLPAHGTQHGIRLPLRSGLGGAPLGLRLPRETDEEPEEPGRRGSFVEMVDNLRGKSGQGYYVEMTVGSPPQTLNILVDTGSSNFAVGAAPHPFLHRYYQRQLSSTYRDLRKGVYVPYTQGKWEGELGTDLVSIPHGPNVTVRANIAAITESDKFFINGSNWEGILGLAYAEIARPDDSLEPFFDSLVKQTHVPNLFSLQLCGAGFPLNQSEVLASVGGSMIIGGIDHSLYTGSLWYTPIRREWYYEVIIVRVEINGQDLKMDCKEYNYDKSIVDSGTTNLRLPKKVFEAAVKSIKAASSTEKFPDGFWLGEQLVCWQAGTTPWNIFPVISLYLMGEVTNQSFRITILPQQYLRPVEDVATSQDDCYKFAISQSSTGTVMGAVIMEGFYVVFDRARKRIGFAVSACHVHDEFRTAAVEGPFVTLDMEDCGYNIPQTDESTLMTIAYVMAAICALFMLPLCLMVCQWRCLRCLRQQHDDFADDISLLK
Turning to `C[C@@]12CC[C@H](O)[C@@H]3COC(=C31)C(=O)c1cc3c(OCCO)cccc3cc12` [XESTOSAPROL F], half-maximal inhibition (IC50) required 135 µM and the inhibition entry was “Dose-dependent effect”.
For `C[C@@]12CC[C@H](O)[C@@H]3COC(=C31)C(=O)c1cc3c(O)cccc3cc12` [XESTOSAPROL G] the same measures were 155 µM and “Dose-dependent effect”.
For `C[C@@]12CC[C@@H](O)[C@@H]3COC(=C31)C(=O)c1cc3c(OCCO)cccc3cc12` [XESTOSAPROL H] the same measures were 82 µM and “Dose-dependent effect”.
For `C[C@@]12CC[C@@H](O)[C@@H]3COC(=C31)C(=O)c1cc3ccccc3cc12` [XESTOSAPROL I] the same measures were 163 µM and “Dose-dependent effect”.
On to `COc1cccc2cc3c(cc12)[C@]1(C)CC[C@H](O)[C@@H]2COC(=C21)C3=O` [XESTOSAPROL J], for which the midpoint of inhibition, the IC50, lay at 90 µM and the inhibition result was “Dose-dependent effect”.
For `C[C@@]12CC[C@H](O)[C@@H]3COC(=C31)C(=O)c1cc3cccc(O)c3cc12` [XESTOSAPROL K], the IC50 amounted to 93 µM and the inhibition entry was “Dose-dependent effect”.
For `C[C@@]12CC[C@H](O)[C@@H]3COC(=C31)C(=O)c1cc3ccccc3cc12` [XESTOSAPROL L] the same measures were 98 µM and “Dose-dependent effect”.
For `C[C@@]12CCCc3coc(c31)C(=O)c1cc3ccccc3cc12` [XESTOSAPROL M], the IC50 is 104 µM and the inhibition entry is “Dose-dependent effect”.
